Data: patent US20260042769A1, “TRIARYL AGONISTS OF ALPHA-2 ADRENERGIC RECEPTORS” (ALCEPTOR THERAPEUTICS, INC., priority 2023, published 2026)

target: T1, human ADRA2B receptor (Homo sapiens, UniProt P18089); assay: GTPγS agonist assay, ADRA2B receptor; format: biochemical; conditions: read-out: GTPase - Human Alpha2B EC50
T1 construct: expressed in transfected cells
T1 sequence (P18089 1-450): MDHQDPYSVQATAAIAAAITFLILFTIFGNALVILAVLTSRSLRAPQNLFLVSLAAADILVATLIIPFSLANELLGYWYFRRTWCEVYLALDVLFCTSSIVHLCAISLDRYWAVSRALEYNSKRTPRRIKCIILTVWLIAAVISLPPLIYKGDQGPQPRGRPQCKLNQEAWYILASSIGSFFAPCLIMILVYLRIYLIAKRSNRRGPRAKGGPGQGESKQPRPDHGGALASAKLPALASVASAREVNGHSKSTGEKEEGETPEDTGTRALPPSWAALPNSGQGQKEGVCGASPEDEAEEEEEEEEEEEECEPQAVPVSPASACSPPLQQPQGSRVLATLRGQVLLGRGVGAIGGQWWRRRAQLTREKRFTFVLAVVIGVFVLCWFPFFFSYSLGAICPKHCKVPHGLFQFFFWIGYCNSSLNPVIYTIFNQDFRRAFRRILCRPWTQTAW
In short: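 CHO-K1 membranes stably expressing human ADRA2B (5 μg protein) in 20 mM HEPES, 10 mM MgCl2, 200 mM NaCl with GDP, preincubated 10 min at room temperature with compound. Binding reaction 1 h at 37° C; bound label collected on GF/C filters, washed, read by scintillation counting.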

Row | SMILES | EC50 [nM]
1 | COc1nccc(CC(c2ccc(OC(F)(F)F)cc2)c2c[nH]cn2)n1 (stereo not shown) [Compound 203, 4-[2-(4-imidazolyl)-2 (p-trifluoromethoxyphenyl)ethyl]-2-methoxypyrimidine] | > 500
2 | Cc1cccc([C@@H](Cc2ccc(=O)[nH]n2)c2cnc[nH]2)c1C [Compound 77, 6-[(2R)-2-(2,3-dimethylphenyl)-2-(1H-imidazol-4-yl)ethyl]-2,3-dihydropyridazin-3-one] | < 10
3 | Cc1cccc(C(Cc2cnco2)c2c[nH]cn2)c1C (stereo not shown) [Compound 134, 5-[2-(4-imidazolyl)-2-(2,3-xylyl)ethyl]-1,3-oxazole] | < 10
4 | Cc1cc(C[C@@H](c2cnc[nH]2)c2cccc(C)c2C)n(C)n1 [Compound 69, 5-[(2R)-2-(2,3-dimethylphenyl)-2-(1H-imidazol-4-yl)ethyl]-1,3-dimethyl-1H-pyrazole] | < 10
5 | Cc1cccc([C@@H](Cc2cnco2)c2c[nH]cn2)c1C [Compound 365, 5-[(R)-2-(4-imidazolyl)-2-(2,3-xylyl)ethyl]-1,3-oxazole] | > 500
6 | COc1ccc(C(Cc2cccnn2)c2c[nH]cn2)cc1 (stereo not shown) [Compound 222, 3-[2-(4-imidazolyl)-2-(p-methoxyphenyl)ethyl] pyridazine] | > 500
7 | Cc1ccnc(C[C@@H](c2cnc[nH]2)c2cccc(C)c2C)n1 [Compound 79, 2-[(2R)-2-(2,3-dimethylphenyl)-2-(1H-imidazol-4-yl)ethyl]-4-methylpyrimidine] | 50 to 500
8 | Cc1cccc([C@H](Cc2ccc(=O)[nH]n2)c2cnc[nH]2)c1C [Compound 76, 6-[(2S)-2-(2,3-dimethylphenyl)-2-(1H-imidazol-4-yl)ethyl]-2,3-dihydropyridazin-3-one] | > 500

Now from value to molecule:

Row | EC50 [nM] | SMILES
9 | > 500 | COc1cccc(C[C@@H](c2c[nH]cn2)c2cccc(Cl)c2OC)n1 [Compound 8, 2-[(2R)-2-(3-chloro-2-methoxyphenyl)-2-(1H-imidazol-4-yl)ethyl]-6-methoxypyridine]
10 | < 10 | Cc1cc(CC(c2c[nH]cn2)c2cccc(C)c2C)no1 (stereo not shown) [Compound 114, 3-[2-(4-imidazolyl)-2-(2,3-xylyl)ethyl]-5-methyl-isoxazole]
11 | 50 to 500 | COc1nccc(CC(c2c[nH]cn2)c2cc(Cl)ccc2C)n1 (stereo not shown) [Compound 184, 4-[2-(5-chloro-2-tolyl)-2-(4-imidazolyl)ethyl]-2-methoxypyrimidine]
12 | 10 to 50 | COc1ccc(CC(c2c[nH]cn2)c2cccc(C)c2C)nn1 (stereo not shown) [Compound 133, 3-[2-(4-imidazolyl)-2-(2,3-xylyl)ethyl]-6-methoxy-pyridazine]
13 | 50 to 500 | Cc1cccc([C@H](Cc2ccnc(CF)n2)c2c[nH]cn2)c1C [Compound 152, 4-[(S)-2-(4-imidazolyl)-2-(2,3-xylyl)ethyl]-2-(fluoromethyl) pyrimidine]
14 | < 10 | COc1nccc(CC(c2c[nH]cn2)c2cccc(Cl)c2Cl)n1 (stereo not shown) [Compound 200, 4-[2-(2,3-dichlorophenyl)-2-(4-imidazolyl)ethyl]-2-methoxypyrimidine]
15 | > 500 | c1cnnc(C[C@H](c2c[nH]cn2)c2cccc3c2OCC3)c1 [Compound 363, 3-[(S)-2-(2,3-dihydro-1-benzofuran-7-yl)-2-(4-imidazolyl)ethyl]pyridazine]
16 | 10 to 50 | Cc1cccc([C@H](Cc2ccnn2C)c2c[nH]cn2)c1C [Compound 131, 5-[(S)-2-(4-imidazolyl)-2-(2,3-xylyl)ethyl]-1-methyl-pyrazole]
17 | > 500 | COc1cccc(CC(c2c[nH]cn2)c2ccnc(C)c2C)n1 (stereo not shown) [Compound 13, 4-[1-(1H-imidazol-4-yl)-2-(6-methoxypyridin-2-yl)ethyl]-2,3-dimethylpyridine]
18 | < 10 | Cc1cccc([C@H](Cc2cccc(C(F)(F)F)n2)c2c[nH]cn2)c1C [Compound 80, 2-[(2S)-2-(2,3-dimethylphenyl)-2-(1H-imidazol-4-yl)ethyl]-6-(trifluoromethyl) pyridine]
19 | 50 to 500 | Cc1cccc(C(Cc2ncc(F)cn2)c2c[nH]cn2)c1C (stereo not shown) [Compound 112, 5-fluoro-2-[2-(4-imidazolyl)-2-(2,3-xylyl)ethyl] pyrimidine]
